Experimental data from patent US6936628B2, “Oral administration of epothilones” (Bristol-Myers Squibb Company, priority 2002, dated 2005).

How the values were obtained:
CYP2C9 = CYP2C9 (Homo sapiens, UniProt P11712); experiment: biochemical
[1] = target: T1, HERG (IKr) potassium channel (Homo sapiens, UniProt Q12809); experiment: HERG (IKr current) assay; type: cell-based; conditions: 30 μM, HEK293 cells transfected with HERG
T1 construct: expressed in transfected cells; host or cells: HEK293
Description: Human embryonic kidney (HEK293) cells stably transfected with the human ether-a-go-go related gene (HERG) cDNA were utilized in the HERG assay. Rabbit Purkinje fibres were used for the Purkinje-fibre action potential assay^7.
In a non-GLP study^7, Compound A was evaluated for effects on potassium channel current at concentrations of 10 and 30 μM. The human ether-a-go-go related gene (HERG) encodes the rapidly activating delayed-rectifier potassium channel (IKr) in heart. […] Based on the findings, it is unlikely that Compound A would cause IKr-mediated increases in the QT interval at anticipated therapeutic plasma concentrations.

Liver S9 incubation, dog = conditions: dog liver S9, 20 μM
[2] = Stability in dog EDTA plasma and whole blood; type: in vitro ADME
Description: Plasma samples from exploratory pharmacokinetic studies were analyzed for Compound A concentrations using an LC/MS/MS assay with a standard curve range of 3.9 to 2000 ng/mL. In pharmacodynamic studies, Compound A concentrations were determined using an LC/MS/MS assay with a standard curve range of 10-40000 nM (5.23-20920 ng/mL) in mouse plasma. For toxicology studies, validated LC/MS/MS assays were used to determine the concentrations of Compound A in rat and dog plasma. Analytical data management for the validated assays was carried out using Watson®. The standard curve range for the validated assay in both matrices was 2 to 500 ng/mL of Compound A. The coefficient of variation for the inter- and intra-assay precision in rat and dog plasma was within 9% and the accuracy was greater than 92%. […] Compound A was stable for at least 4 months at !20EC and through at least 3 freeze-thaw cycles in rat and dog EDTA plasma. In addition, Compound A was stable in fresh rat and dog EDTA whole blood for at least 1 h at 4EC.

human CYP2C19 = human CYP2C19 (Homo sapiens, UniProt P33261); experiment: biochemical
Sequence of human CYP2C19 (P33261 whole entry): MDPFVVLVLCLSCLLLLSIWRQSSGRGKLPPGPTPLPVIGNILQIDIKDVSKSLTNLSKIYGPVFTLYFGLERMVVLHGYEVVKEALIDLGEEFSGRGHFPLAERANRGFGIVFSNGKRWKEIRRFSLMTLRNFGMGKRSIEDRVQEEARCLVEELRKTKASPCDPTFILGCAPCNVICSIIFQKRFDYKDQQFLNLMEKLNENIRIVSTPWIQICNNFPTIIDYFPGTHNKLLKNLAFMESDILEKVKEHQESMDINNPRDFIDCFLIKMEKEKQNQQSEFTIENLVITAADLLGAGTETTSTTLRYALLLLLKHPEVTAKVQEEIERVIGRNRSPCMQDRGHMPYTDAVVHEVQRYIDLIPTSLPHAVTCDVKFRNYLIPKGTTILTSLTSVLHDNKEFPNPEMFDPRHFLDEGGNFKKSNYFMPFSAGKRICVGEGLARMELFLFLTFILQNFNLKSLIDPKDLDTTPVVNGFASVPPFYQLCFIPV

in vitro = conditions: human, Caco-2
[3] = vehicle 1 versus vehicle 2
Description: In another pharmacokinetic study, fasted male Sprague-Dawley rats, assigned to two IA groups (2 mg/kg) and one oral (8 mg/kg) group (n=3/group), were administered a single dose of Compound A. Compound A was prepared for IA administration in two separate vehicles: vehicle 1, cremophor:ethanol:water (10:10:80), and vehicle 2, ethanol:phosphate buffer, 0.05 M, pH 7.4 (6:94). The vehicle for the oral administration was ethanol:phosphate buffer, 0.3 M, pH 8 (18:82). Samples were collected at 10, 15, 30, and 45 min, and at 1, 2, 4, 6, 8, 10, 24, and 48 hours after dosing.

[4] = Single dose IV toxicokinetics in rats; type: in vivo; conditions: both sexes, rat, plasma, IV 1, 5 and 7 mg/kg, across doses and sex
Description: The single dose IV toxicokinetics of Compound A in rats were evaluated as a part of a toxicology study. Compound A, prepared in 50 mM citrate buffer (pH 5), was given intravenously (over approximately 1-2 min period) at doses of 1, 5, and 7 mg/kg to 3 rats/gender/dose. Blood samples were collected at 3, 15, and 30 minutes, and at 1, 3, 6, 12, and 24 h after dosing. Plasma concentrations of Compound A were determined using a validated LC/MS/MS assay with a standard curve range of 2-500 ng/mL. […] Systemic exposures were reasonably similar between male and female rats. […] Furthermore, there appeared to be no differences in the toxicokinetics of Compound A between male and female rats.

[5] = Stability of diluted solutions; type: physicochemical; conditions: diluted with 0.9% Sodium Chloride Injection, 5° C. or room temperature and room light
[6] = Liver S9 incubation, mouse; conditions: mouse liver S9, 20 μM
[7] = Microsomal incubation, human; conditions: human liver microsomes + NADPH, 20 μM
[8] = test system: Pat-7 human ovarian carcinoma; conditions: Balb/c nu/nu, mouse, in vivo, iv

T1 sequence (Q12809 whole entry): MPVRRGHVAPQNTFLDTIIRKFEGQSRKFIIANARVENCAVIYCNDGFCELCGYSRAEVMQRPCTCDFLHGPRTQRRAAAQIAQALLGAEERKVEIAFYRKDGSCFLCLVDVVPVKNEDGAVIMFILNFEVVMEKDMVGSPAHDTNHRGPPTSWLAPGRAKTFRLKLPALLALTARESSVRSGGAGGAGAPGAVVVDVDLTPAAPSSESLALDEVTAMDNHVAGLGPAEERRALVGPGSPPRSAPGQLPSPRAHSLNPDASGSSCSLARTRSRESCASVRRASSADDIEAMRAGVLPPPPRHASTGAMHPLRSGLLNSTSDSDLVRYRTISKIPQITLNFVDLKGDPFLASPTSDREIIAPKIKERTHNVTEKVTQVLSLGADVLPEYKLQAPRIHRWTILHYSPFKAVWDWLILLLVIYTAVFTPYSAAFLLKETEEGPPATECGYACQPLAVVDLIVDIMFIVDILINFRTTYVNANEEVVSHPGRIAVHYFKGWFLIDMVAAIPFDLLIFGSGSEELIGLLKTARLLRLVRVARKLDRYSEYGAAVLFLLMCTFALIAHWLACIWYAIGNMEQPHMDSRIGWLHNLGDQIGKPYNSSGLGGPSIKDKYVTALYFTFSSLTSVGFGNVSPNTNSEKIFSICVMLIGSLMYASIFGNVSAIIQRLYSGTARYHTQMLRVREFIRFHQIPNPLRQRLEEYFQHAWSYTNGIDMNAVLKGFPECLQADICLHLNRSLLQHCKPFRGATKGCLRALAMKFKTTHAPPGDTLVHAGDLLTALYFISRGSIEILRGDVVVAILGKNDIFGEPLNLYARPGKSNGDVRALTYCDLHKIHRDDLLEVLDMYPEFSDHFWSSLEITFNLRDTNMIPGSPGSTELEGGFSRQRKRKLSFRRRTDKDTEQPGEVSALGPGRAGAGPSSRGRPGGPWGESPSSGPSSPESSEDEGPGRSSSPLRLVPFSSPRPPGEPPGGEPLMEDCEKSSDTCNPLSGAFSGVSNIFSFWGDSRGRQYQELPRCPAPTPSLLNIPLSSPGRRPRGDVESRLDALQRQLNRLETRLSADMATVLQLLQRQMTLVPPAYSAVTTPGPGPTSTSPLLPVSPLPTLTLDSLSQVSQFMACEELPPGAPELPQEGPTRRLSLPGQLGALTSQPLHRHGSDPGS
Sequence of CYP2C9 (P11712 whole entry): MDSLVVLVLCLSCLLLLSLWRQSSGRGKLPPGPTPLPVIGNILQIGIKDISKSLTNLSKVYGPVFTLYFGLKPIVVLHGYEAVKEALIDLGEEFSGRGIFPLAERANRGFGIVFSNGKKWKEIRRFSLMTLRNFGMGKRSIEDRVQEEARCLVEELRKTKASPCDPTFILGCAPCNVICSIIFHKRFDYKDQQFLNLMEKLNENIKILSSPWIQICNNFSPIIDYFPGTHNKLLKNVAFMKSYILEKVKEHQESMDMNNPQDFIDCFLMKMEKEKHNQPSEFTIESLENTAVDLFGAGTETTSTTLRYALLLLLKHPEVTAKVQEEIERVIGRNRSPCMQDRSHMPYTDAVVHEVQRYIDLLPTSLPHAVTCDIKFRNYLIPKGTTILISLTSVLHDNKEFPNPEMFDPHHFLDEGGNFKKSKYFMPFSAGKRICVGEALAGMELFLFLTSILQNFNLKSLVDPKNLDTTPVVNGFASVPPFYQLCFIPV

SMILES: C/C(=C\c1csc(CN)n1)[C@@H]1C[C@@H]2O[C@]2(C)CCC[C@H](C)[C@H](O)[C@@H](C)C(=O)C(C)(C)[C@@H](O)CC(=O)O1 (relative stereo) [Compound A, [1S-[1R*,3R*(E),7R*,10S*,11R*,12R*,16S*]]-3-[2-[2-(aminomethyl)-4-thiazolyl]-1-methylethenyl]-7,11-dihydroxy-8,8,10,12,16-pentamethyl-4,17-dioxabicyclo[14.1.0]heptadecane-5,9-dione]
- IC50 (CYP2C9): 10.6 µM
- maximum inhibition of IKr current [1]: 13.5%
- rate of oxidative metabolism (Liver S9 incubation, dog): 0.03
- stable through freeze-thaw cycles ([2]; dog EDTA plasma): at least 3 freeze-thaw cycles
- stable in plasma prior to processing ([2]; dog EDTA plasma, 4EC): at least 4 h
- stable in frozen plasma ([2]; dog EDTA plasma, !20EC): at least 4 months
- stable in fresh whole blood ([2]; dog EDTA whole blood, 4EC): at least 1 h
- stable in an autosampler after processing ([2]; dog plasma samples, 4EC): at least 5 days
- IC50 (human CYP2C19): 2.4 µM
- Papp at 200 μM (in vitro): 6 ×10⁻⁶ cm/s
- increase in systemic exposure with cremophor vehicle [3]: about 4 fold
- AUC [4]: 159 to 1940 ng·h/mL
- Cmax [4]: 183 to 3910 ng/mL
- time solutions are stable after final dilution [5]: ≤ 24 h
- rate of oxidative metabolism [6]: 0.06
- rate of oxidative metabolism [7]: 0.21 mmol/min/mg protein
- OD (optimal dose or maximum tolerated dose) [8]: 8 mg/kg
